The source of these data is patent US20230340011A1 (Asteroid Therapeutics, priority 2022, published 2023).

One test deals with LXRβ (Homo sapiens (Human), UniProt P55055). Description: In vitro assay LXRβ: PathHunter NHR CHO cells, LXRβ / Steroid Receptor Co-activator Peptide enzyme fragment complementation. Type of test: cell-based. The conditions noted are these: PathHunter NHR CHO cells, full-length human LXRβ and SRCP, chemiluminescent signal; read-out: LXRβ PPI. Here is the method:
PathHunter NHR CHO cells stably transfected with tagged full-length human LXRβ and a nuclear fusion protein containing Steroid Receptor Co-activator Peptide (SRCP). The full-length human LXRβ was tagged with the ProLink™ component of the DiscoverX Enzyme Fragment Complementation (EFC) system and the SRCP domain is fused to the enzyme acceptor component (EA) expressed in the nucleus. Cells were seeded in a total volume of 20 μL into white walled, 384-well microplates and incubated at 37° C. overnight prior to testing. Assay media contained charcoal-dextran filtered serum to reduce the level of hormones present. Final assay vehicle concentration was 1%. […] Microplates were read following signal generation with a PerkinElmer Envision instrument for chemiluminescent signal detection.

The target of a further test is SREBP-2 (Homo sapiens (Human), UniProt Q12772). Description: In vitro assay SREBP-2: PathHunter U2OS SREBP-2 Nuclear Translocation Cell Line, U18666A-stimulated. Type of test: cell-based. The conditions noted are these: PathHunter U2OS SREBP-2 nuclear translocation cells, U18666A 10 μM, overnight (16 hours).

Chain of LXRβ (P55055 whole entry, the tested form may be a part): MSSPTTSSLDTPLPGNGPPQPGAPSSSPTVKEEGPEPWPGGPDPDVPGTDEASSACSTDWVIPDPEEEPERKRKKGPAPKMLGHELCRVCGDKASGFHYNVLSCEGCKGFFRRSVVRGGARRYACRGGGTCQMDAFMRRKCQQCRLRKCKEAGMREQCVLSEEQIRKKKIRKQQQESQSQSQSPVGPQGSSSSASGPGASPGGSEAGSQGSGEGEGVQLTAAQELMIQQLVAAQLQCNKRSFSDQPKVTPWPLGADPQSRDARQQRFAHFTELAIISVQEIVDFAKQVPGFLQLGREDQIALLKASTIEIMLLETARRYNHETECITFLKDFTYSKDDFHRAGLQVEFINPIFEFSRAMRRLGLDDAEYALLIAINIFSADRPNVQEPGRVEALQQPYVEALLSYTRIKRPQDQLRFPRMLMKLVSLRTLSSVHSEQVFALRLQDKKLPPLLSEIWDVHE

Take `C[C@@H](NC(=O)C(=O)N(C)C)[C@H]1CC[C@H]2[C@@H]3CC=C4C[C@@H](O)CC[C@]4(C)[C@H]3CC[C@]12C` (single isomer, unassigned) [Example 119]: the EC50 at LXRβ was more than 10000 nM. Still for that read-out and setting: to `C[C@H](CCC(=O)N1CCC(C)(O)CC1)[C@H]1CC[C@H]2[C@@H]3CC=C4C[C@@H](O)CC[C@]4(C)[C@H]3CC[C@]12C` [Example 6, (R)-4-((3S,8S,9S,10R,13R,14S,17R)-3-hydroxy-10,13-dimethyl-2,3,4,7,8,9,10,11,12,13,14,15,16,17-tetradecahydro-1H-cyclopenta[a]phenanthren-17-yl)-1-(4-hydroxy-4-methylpiperidin-1-yl)pentan-1-one] belongs 250 to 1000 nM; to `CCN(OC)C(=O)CC[C@@H](C)[C@H]1CC[C@H]2[C@@H]3CC=C4C[C@@H](O)CC[C@]4(C)[C@H]3CC[C@]12C` [Example 11, (R)—N-ethyl-4-((3S,8S,9S,10R,13R,14S,17R)-3-hydroxy-10,13-dimethyl-2,3,4,7,8,9,10,11,12,13,14,15,16,17-tetradecahydro-1H-cyclopenta[a]phenanthren-17-yl)-N-methoxypentanamide], 250 to 1000 nM. For the compound `CCCON(C)C(=O)CC[C@@H](C)[C@H]1CC[C@H]2[C@@H]3CC=C4C[C@@H](O)CC[C@]4(C)[C@H]3CC[C@]12C` [Example 12, (R)-4-((3S,8S,9S,10R,13R,14S,17R)-3-hydroxy-10,13-dimethyl-2,3,4,7,8,9,10,11,12,13,14,15,16,17-tetradecahydro-1H-cyclopenta[a]phenanthren-17-yl)-N-methyl-N-propoxypentanamide], the EC50 on LXRβ lay within 250 to 1000 nM. Same read-out and setting: in the case of `CON(C(=O)CC[C@@H](C)[C@H]1CC[C@H]2[C@@H]3CC=C4C[C@@H](O)CC[C@]4(C)[C@H]3CC[C@]12C)C(C)C` [Example 15, (R)-4-((3S,8S,9S,10R,13R,14S,17R)-3-hydroxy-10,13-dimethyl-2,3,4,7,8,9,10,11,12,13,14,15,16,17-tetradecahydro-1H-cyclopenta[a]phenanthren-17-yl)-N-isopropyl-N-methoxypentanamide] it was 1000 to 10000 nM. Take `CCCCN(OC)C(=O)CC[C@@H](C)[C@H]1CC[C@H]2[C@@H]3CC=C4C[C@@H](O)CC[C@]4(C)[C@H]3CC[C@]12C` [Example 17, (R)—N-butyl-4-((3S,8S,9S,10R,13R,14S,17R)-3-hydroxy-10,13-dimethyl-2,3,4,7,8,9,10,11,12,13,14,15,16,17-tetradecahydro-1H-cyclopenta[a]phenanthren-17-yl)-N-methoxypentanamide]: on LXRβ, the EC50 was 1000 to 10000 nM.

Consider `COCCON(C)C(=O)CC[C@@H](C)[C@H]1CC[C@H]2[C@@H]3CC=C4C[C@@H](O)CC[C@]4(C)[C@H]3CC[C@]12C` [Example 27, (R)-4-((3S,8S,9S,10R,13R,14S,17R)-3-hydroxy-10,13-dimethyl-2,3,4,7,8,9,10,11,12,13,14,15,16,17-tetradecahydro-1H-cyclopenta[a]phenanthren-17-yl)-N-(2-methoxyethoxy)-N-methylpentanamide], for which the EC50 on LXRβ is 1000 to 10000 nM. As a reminder, the IC50 is the point on the concentration scale where inhibition reaches its midpoint. A higher IC50 goes with weaker potency in that assay. On SREBP-2, `CNC(=O)N[C@H]1CCN(C(=O)CC[C@@H](C)[C@H]2CC[C@H]3[C@@H]4CC=C5C[C@@H](O)CC[C@]5(C)[C@H]4CC[C@]23C)C1` [Example 533, 1-((S)-1-((R)-4-((3S,8S,9S,10R,13R,14S,17R)-3-hydroxy-10,13-dimethyl-2,3,4,7,8,9,10,11,12,13,14,15,16,17-tetradecahydro-1H-cyclopenta[a]phenanthren-17-yl)pentanoyl)pyrrolidin-3-yl)-3-methylurea] yielded an IC50 of less than 250 nM. Still for that read-out and setting: in the case of `C[C@H](CCC(=O)N1CC[C@H](NC(=O)N(C)C)C1)[C@H]1CC[C@H]2[C@@H]3CC=C4C[C@@H](O)CC[C@]4(C)[C@H]3CC[C@]12C` [Example 534, 3-((S)-1-((R)-4-((3S,8S,9S,10R,13R,14S,17R)-3-hydroxy-10,13-dimethyl-2,3,4,7,8,9,10,11,12,13,14,15,16,17-tetradecahydro-1H-cyclopenta[a]phenanthren-17-yl)pentanoyl)pyrrolidin-3-yl)-1,1-dimethylurea] it was less than 250 nM; in that of `C[C@H](CCC(=O)N1CC[C@H](NS(C)(=O)=O)C1)[C@H]1CC[C@H]2[C@@H]3CC=C4C[C@@H](O)CC[C@]4(C)[C@H]3CC[C@]12C` [Example 535, N—((S)-1-((R)-4-((3S,8S,9S,10R,13R,14S,17R)-3-hydroxy-10,13-dimethyl-2,3,4,7,8,9,10,11,12,13,14,15,16,17-tetradecahydro-1H-cyclopenta[a]phenanthren-17-yl)pentanoyl)pyrrolidin-3-yl)methanesulfonamide], 250 to 1000 nM. Still for that read-out and setting: in the case of `CNC(=O)[C@H]1CCN(C(=O)CC[C@@H](C)[C@H]2CC[C@H]3[C@@H]4CC=C5C[C@@H](O)CC[C@]5(C)[C@H]4CC[C@]23C)C1` [Example 536, (S)-1-((R)-4-((3S,8S,9S,10R,13R,14S,17R)-3-hydroxy-10,13-dimethyl-2,3,4,7,8,9,10,11,12,13,14,15,16,17-tetradecahydro-1H-cyclopenta[a]phenanthren-17-yl)pentanoyl)-N-methylpyrrolidine-3-carboxamide] it was 250 to 1000 nM. The compound `C[C@H](CCC(=O)N1CC[C@H](C(=O)N(C)C)C1)[C@H]1CC[C@H]2[C@@H]3CC=C4C[C@@H](O)CC[C@]4(C)[C@H]3CC[C@]12C` [Example 537, (S)-1-((R)-4-((3S,8S,9S,10R,13R,14S,17R)-3-hydroxy-10,13-dimethyl-2,3,4,7,8,9,10,11,12,13,14,15,16,17-tetradecahydro-1H-cyclopenta[a]phenanthren-17-yl)pentanoyl)-N,N-dimethylpyrrolidine-3-carboxamide] had an IC50 against SREBP-2 of 250 to 1000 nM. For `CCN(CCc1ccccn1)C(=O)CC[C@@H](C)[C@H]1CC[C@H]2[C@@H]3CC=C4C[C@@H](O)CC[C@]4(C)[C@H]3CC[C@]12C` [Example 541, (4R)-4-[(1R,3aS,3bS,7S,9aR,9bS,11aR)-7-hydroxy-9a,11a-dimethyl-1H,2H,3H,3aH,3bH,4H,6H,7H,8H,9H,9aH,9bH,10H,11H,11aH-cyclopenta[a]phenanthren-1-yl]-N-ethyl-N-[2-(pyridin-2-yl)ethyl]pentanamide], the IC50 on SREBP-2 is less than 250 nM. Same read-out and setting: to `C[C@H](CCC(=O)N(C)Cc1ccccn1)[C@H]1CC[C@H]2[C@@H]3CC=C4C[C@@H](O)CC[C@]4(C)[C@H]3CC[C@]12C` [Example 542, (4R)-4-[(1R,3aS,3bS,7S,9aR,9bS,11aR)-7-hydroxy-9a,11a-dimethyl-1H,2H,3H,3aH,3bH,4H,6H,7H,8H,9H,9aH,9bH,10H,11H,11aH-cyclopenta[a]phenanthren-1-yl]-N-methyl-N— [(pyridin-2-yl)methyl]pentanamide] belongs 250 to 1000 nM; to `C[C@H](CCC(=O)N(C)CCc1ccncc1)[C@H]1CC[C@H]2[C@@H]3CC=C4C[C@@H](O)CC[C@]4(C)[C@H]3CC[C@]12C` [Example 544, (R)-4-((3S,8S,9S,10R,13R,14S,17R)-3-hydroxy-10,13-dimethyl-2,3,4,7,8,9,10,11,12,13,14,15,16,17-tetradecahydro-1H-cyclopenta[a]phenanthren-17-yl)-N-methyl-N-(2-(pyridin-4-yl)ethyl)pentanamide], less than 250 nM; to `C[C@H](CCC(=O)Nc1ccc(C(N)=O)cc1)[C@H]1CC[C@H]2[C@@H]3CC=C4C[C@@H](O)CC[C@]4(C)[C@H]3CC[C@]12C` [Example 556, 4-((R)-4-((3S,8S,9S,10R,13R,14S,17R)-3-hydroxy-10,13-dimethyl-2,3,4,7,8,9,10,11,12,13,14,15,16,17-tetradecahydro-1H-cyclopenta[a]phenanthren-17-yl)pentanamido)benzamide], less than 250 nM. Same read-out and setting: in the case of `C[C@H](CCC(=O)N1CCN(C2CC2)CC1)[C@H]1CC[C@H]2[C@@H]3CC=C4C[C@@H](O)CC[C@]4(C)[C@H]3CC[C@]12C` [Example 558, (4R)-4-[(1R,3aS,3bS,7S,9aR,9bS,11aR)-7-hydroxy-9a,11a-dimethyl-1H,2H,3H,3aH,3bH,4H,6H,7H,8H,9H,9aH,9bH,10H,11H,11aH-cyclopenta[a]phenanthren-1-yl]-1-(4-cyclopropylpiperazin-1-yl)pentan-1-one] it was less than 250 nM; in that of `C[C@H](CCC(=O)N1CC[C@@H](Oc2ccncc2)C[C@@H]1C)[C@H]1CC[C@H]2[C@@H]3CC=C4C[C@@H](O)CC[C@]4(C)[C@H]3CC[C@]12C` [Example 586, (R)-4-((3S,8S,9S,10R,13R,14S,17R)-3-hydroxy-10,13-dimethyl-2,3,4,7,8,9,10,11,12,13,14,15,16,17-tetradecahydro-1H-cyclopenta[a]phenanthren-17-yl)-1-((2S,4R)-2-methyl-4-(pyridin-4-yloxy)piperidin-1-yl)pentan-1-one], less than 250 nM; in that of `CCC1(O)CCN(C(=O)C[C@@H](C)[C@H]2CC[C@H]3[C@@H]4CC=C5C[C@@H](O)CC[C@]5(C)[C@H]4CC[C@]23C)CC1` [Example 592, (R)-1-(4-ethyl-4-hydroxypiperidin-1-yl)-3-((3S,8S,9S,10R,13R,14S,17R)-3-hydroxy-10,13-dimethyl-2,3,4,7,8,9,10,11,12,13,14,15,16,17-tetradecahydro-1H-cyclopenta[a]phenanthren-17-yl)butan-1-one], less than 250 nM. The same measure, in the same setting: in the case of “(4R)-4-[(1R,3aS,3bS,7S,9aR,9bS,11aR)-7-hydroxy-9a,11a-dimethyl-1H,2H,3H,3aH,3bH,4H,6H,7H,8H,9H,9aH,9bH,10H,11H,11aH-cyclopenta[a]phenanthren-1-yl]-1-[(3R)-3-(pyrimidin-4-yloxy)piperidin-1-yl]pentan-1-one [Example 462]” it was less than 250 nM.
